≈ marks a conversion by molar mass, not a printed value. Calls of active or inactive are those of the source. No cut-off for these calls is given here.
Tests used:
Cyberlindnera jadinii = test: Antifungal activity against Candida utilis ATCC9950 assessed as growth inhibition incubated at 35 degC for 24 hrs by micro broth dilution method; format: functional; settings: Williopsis jadinii, ATCC9950, 24 h
Aspergillus flavus = test: Antifungal activity against Aspergillus flavus ATCC204304 assessed as growth inhibition incubated at 35 degC for 24 hrs by micro broth dilution method; format: functional; settings: ATCC204304, 24 h
Saccharomyces cerevisiae = test: Antifungal activity against Saccharomyces cerevisiae ATCC9763 assessed as growth inhibition incubated at 35 degC for 24 hrs by micro broth dilution method; format: functional; settings: ATCC9763, 24 h
Candida albicans = test: Antifungal activity against Candida albicans ATCC10231 assessed as growth inhibition incubated at 35 degC for 24 hrs by micro broth dilution method; format: functional; settings: ATCC10231, 24 h
[1] = Antifungal activity against Candida mycoderma ATCC9888 assessed as growth inhibition incubated at 35 degC for 24 hrs by micro broth dilution method; format: functional; settings: Kregervanrija fluxuum
Micrococcus luteus = test: Antibacterial activity against Micrococcus luteus ATCC4698 assessed as growth inhibition incubated at 37 degC for 24 hrs by micro broth dilution method; format: functional; settings: ATCC4698, 24 h
Staphylococcus aureus [2] = test: Antibacterial activity against methicillin resistant Staphylococcus aureus N315 assessed as growth inhibition incubated at 37 degC for 24 hrs by micro broth dilution method; format: functional; settings: N315, 24 h
Staphylococcus aureus [3] = test: Antibacterial activity against Staphylococcus aureus ATCC25923 assessed as growth inhibition incubated at 37 degC for 24 hrs by micro broth dilution method; format: functional; settings: ATCC25923, 24 h
Bacillus subtilis = test: Antibacterial activity against Bacillus subtilis ATCC6633 assessed as growth inhibition incubated at 37 degC for 24 hrs by micro broth dilution method; format: functional; settings: ATCC6633, 24 h
Pseudomonas aeruginosa [4] = test: Antibacterial activity against Pseudomonas aeruginosa ATCC27853 assessed as growth inhibition incubated at 37 degC for 24 hrs by micro broth dilution method; format: functional; settings: ATCC27853, 24 h
Escherichia coli = test: Antibacterial activity against Escherichia coli JM109 assessed as growth inhibition incubated at 37 degC for 24 hrs by micro broth dilution method; format: functional; settings: JM109, 24 h
[5] = Antibacterial activity against Eberthella typhosa ATCC14028 assessed as growth inhibition incubated at 37 degC for 24 hrs by micro broth dilution method; format: functional; settings: ATCC14028, 24 h
Pseudomonas aeruginosa [6] = test: Potency index, ratio of chloramphenicol MIC to compound MIC for Pseudomonas aeruginosa ATCC27853; format: functional
Pseudomonas aeruginosa [7] = test: Potency index, ratio of clinafloxacin MIC to compound MIC for Pseudomonas aeruginosa ATCC27853; format: functional
[8] = Antibacterial activity against Bacillus proteus ATCC13315 assessed as growth inhibition incubated at 37 degC for 24 hrs by micro broth dilution method; format: functional; settings: ATCC13315, 24 h
Staphylococcus aureus [9] = test: Binding affinity to methicillin-resistant Staphylococcus aureus DNA assessed as induction of DNA intercalation by UV-visible spectroscopy
Staphylococcus aureus [10] = test: Binding affinity to methicillin-resistant Staphylococcus aureus DNA assessed as induction of DNA intercalation in presence of potassium iodide by fluorescence spectroscopy based Stern-Volmer plot
[11] = Binding affinity to Cu2+ ion assessed as 1:1 compound-Cu2+ complex formation by fluorescence spectroscopy
Staphylococcus aureus [12] = test: Binding affinity to methicillin-resistant Staphylococcus aureus DNA assessed as induction of DNA intercalation by measuring as 1:1 compound-DNA complex formation in presence of Cu2+ ions by fluorescence spectroscopy

Row | Compound | MIC80 (Cyberlindnera jadinii) [µg/mL] | MIC80 (Aspergillus flavus) [µg/mL] | MIC80 (Saccharomyces cerevisiae) [µg/mL] | MIC80 (Candida albicans) [µg/mL] | MIC80 [1] [µg/mL] | MIC (Micrococcus luteus) [µg/mL] | MIC (Staphylococcus aureus [2]) [µg/mL] | MIC (Staphylococcus aureus [3]) [µg/mL] | MIC (Bacillus subtilis) [µg/mL] | MIC (Pseudomonas aeruginosa [4]) [µg/mL] | MIC (Escherichia coli) [µg/mL] | MIC [5] [µg/mL] | Ratio (Pseudomonas aeruginosa [6]) | Ratio (Pseudomonas aeruginosa [7]) | MIC [8] [µg/mL] | Activity (Staphylococcus aureus [9]) | Activity (Staphylococcus aureus [10]) | Activity [11] | Activity (Staphylococcus aureus [12])
1 | Cn1ccnc1SCC(O)CNC1CCN(c2c(F)cc3c(=O)c(C(=O)O)cn(C4CC4)c3c2Cl)C1 (configuration not stated) | 32 (≈ 59.7 µM) | 32 (≈ 59.7 µM) | 16 (≈ 29.8 µM) | 0.5 (≈ 0.933 µM) | 1 (≈ 1.87 µM) | 0.5 (≈ 0.933 µM) | 0.25 (≈ 0.466 µM) | 0.5 (≈ 0.933 µM) | 0.5 (≈ 0.933 µM) | 0.25 (≈ 0.466 µM) | 1 (≈ 1.87 µM) | 0.5 (≈ 0.933 µM) | 64 | 4 | 0.5 (≈ 0.933 µM) | Dose-dependent effect | Active | Active | Active
2 | O=C(O)c1cn(C2CC2)c2cc(N3CCN(CC(O)CSc4ncn(Cc5ccc(Cl)cc5Cl)n4)CC3)c(F)cc2c1=O (configuration not stated) | 4 (≈ 6.18 µM) | 16 (≈ 24.7 µM) | 64 (≈ 98.8 µM) | 32 (≈ 49.4 µM) | 16 (≈ 24.7 µM) | 2 (≈ 3.09 µM) | 1 (≈ 1.54 µM) | 1 (≈ 1.54 µM) | 2 (≈ 3.09 µM) | 4 (≈ 6.18 µM) | 2 (≈ 3.09 µM) | 1 (≈ 1.54 µM) |  |  | 2 (≈ 3.09 µM) |  |  |  | 
3 | O=C(O)c1cn(C2CC2)c2cc(N3CCN(CC(O)Cn4cnc(S)n4)CC3)c(F)cc2c1=O (configuration not stated) | 128 (≈ 262 µM) | 64 (≈ 131 µM) | 64 (≈ 131 µM) | 8 (≈ 16.4 µM) | 32 (≈ 65.5 µM) | 16 (≈ 32.8 µM) | 16 (≈ 32.8 µM) | 2 (≈ 4.09 µM) | 4 (≈ 8.19 µM) | 4 (≈ 8.19 µM) | 8 (≈ 16.4 µM) | 1 (≈ 2.05 µM) |  |  | 4 (≈ 8.19 µM) |  |  |  | 
4 | CCn1cc(C(=O)O)c(=O)c2cc(F)c(N3CCN(CC4CO4)CC3)cc21 (configuration not stated) | 8 (≈ 21.3 µM) | 1 (≈ 2.66 µM) | 1 (≈ 2.66 µM) | 4 (≈ 10.7 µM) | 1 (≈ 2.66 µM) | 8 (≈ 21.3 µM) | 2 (≈ 5.33 µM) | 8 (≈ 21.3 µM) | 64 (≈ 170 µM) | 16 (≈ 42.6 µM) | 2 (≈ 5.33 µM) | 16 (≈ 42.6 µM) |  |  | 4 (≈ 10.7 µM) |  |  |  | 
5 | O=C(O)c1cn(C2CC2)c2c(Cl)c(N3CCC(NCC(O)Cn4cnc(S)n4)C3)c(F)cc2c1=O (configuration not stated) | 4 (≈ 7.65 µM) | 8 (≈ 15.3 µM) | 8 (≈ 15.3 µM) | 2 (≈ 3.82 µM) | 8 (≈ 15.3 µM) | 2 (≈ 3.82 µM) | 4 (≈ 7.65 µM) | 0.5 (≈ 0.956 µM) | 0.5 (≈ 0.956 µM) | 4 (≈ 7.65 µM) | 1 (≈ 1.91 µM) | 0.5 (≈ 0.956 µM) |  |  | 1 (≈ 1.91 µM) |  |  |  | 
6 | O=C(O)c1cn(C2CC2)c2c(Cl)c(N3CCC(NCC(O)CSc4ncn(Cc5ccc(Cl)c(Cl)c5)n4)C3)c(F)cc2c1=O (configuration not stated) | 8 (≈ 11.7 µM) | 8 (≈ 11.7 µM) | 16 (≈ 23.5 µM) | 0.5 (≈ 0.733 µM) | 1 (≈ 1.47 µM) | 0.5 (≈ 0.733 µM) | 0.5 (≈ 0.733 µM) | 0.5 (≈ 0.733 µM) | 0.5 (≈ 0.733 µM) | 0.5 (≈ 0.733 µM) | 1 (≈ 1.47 µM) | 0.5 (≈ 0.733 µM) |  |  | 0.5 (≈ 0.733 µM) |  |  |  | 
7 | CCn1cc(C(=O)O)c(=O)c2cc(F)c(N3CCN(CC(O)CSc4ncn(Cc5ccc(Cl)c(Cl)c5)n4)CC3)cc21 (configuration not stated) | 128 (≈ 201 µM) | 16 (≈ 25.2 µM) | 32 (≈ 50.4 µM) | 64 (≈ 101 µM) | 128 (≈ 201 µM) | 32 (≈ 50.4 µM) | 8 (≈ 12.6 µM) | 4 (≈ 6.29 µM) | 128 (≈ 201 µM) | 64 (≈ 101 µM) | 16 (≈ 25.2 µM) | 64 (≈ 101 µM) |  |  | 8 (≈ 12.6 µM) |  |  |  | 
8 | CCn1cc(C(=O)O)c(=O)c2cc(F)c(N3CCN(CC(O)CSc4nnnn4C)CC3)cc21 (configuration not stated) | 64 (≈ 130 µM) | 64 (≈ 130 µM) | 128 (≈ 260 µM) | 32 (≈ 65.1 µM) | 64 (≈ 130 µM) | 64 (≈ 130 µM) | 128 (≈ 260 µM) | 128 (≈ 260 µM) | 32 (≈ 65.1 µM) | 128 (≈ 260 µM) | 8 (≈ 16.3 µM) | 32 (≈ 65.1 µM) |  |  | 128 (≈ 260 µM) |  |  |  | 
9 | Sc1ncn(Cc2ccc(Cl)cc2Cl)n1 | 512 (≈ 1970 µM) | 256 (≈ 984 µM) | 512 (≈ 1970 µM) | 512 (≈ 1970 µM) | 128 (≈ 492 µM) | 128 (≈ 492 µM) | 128 (≈ 492 µM) | 512 (≈ 1970 µM) | 512 (≈ 1970 µM) | 256 (≈ 984 µM) | 256 (≈ 984 µM) | 256 (≈ 984 µM) |  |  | 512 (≈ 1970 µM) |  |  |  | 
10 | CCn1cc(C(=O)O)c(=O)c2cc(F)c(N3CCN(CC(O)CSc4nccn4C)CC3)cc21 (configuration not stated) | 64 (≈ 131 µM) | 256 (≈ 523 µM) | 128 (≈ 261 µM) | 16 (≈ 32.7 µM) | 64 (≈ 131 µM) | 32 (≈ 65.4 µM) | 64 (≈ 131 µM) | 16 (≈ 32.7 µM) | 16 (≈ 32.7 µM) | 64 (≈ 131 µM) | 8 (≈ 16.3 µM) | 16 (≈ 32.7 µM) |  |  | 64 (≈ 131 µM) |  |  |  | 
11 | O=C(O)c1cn(C2CC2)c2c(Cl)c(N3CCC(NCC(O)CSc4ncn(Cc5ccc(Cl)cc5Cl)n4)C3)c(F)cc2c1=O (configuration not stated) | 16 (≈ 23.5 µM) | 64 (≈ 93.8 µM) | 64 (≈ 93.8 µM) | 16 (≈ 23.5 µM) | 4 (≈ 5.87 µM) | 4 (≈ 5.87 µM) | 8 (≈ 11.7 µM) | 2 (≈ 2.93 µM) | 0.5 (≈ 0.733 µM) | 1 (≈ 1.47 µM) | 1 (≈ 1.47 µM) | 1 (≈ 1.47 µM) |  |  | 0.5 (≈ 0.733 µM) |  |  |  | 
12 | O=C(O)c1cn(C2CC2)c2cc(N3CCN(CC(O)CSc4ncn(Cc5ccc(Cl)c(Cl)c5)n4)CC3)c(F)cc2c1=O (configuration not stated) | 2 (≈ 3.09 µM) | 16 (≈ 24.7 µM) | 32 (≈ 49.4 µM) | 16 (≈ 24.7 µM) | 8 (≈ 12.4 µM) | 1 (≈ 1.54 µM) | 1 (≈ 1.54 µM) | 0.5 (≈ 0.772 µM) | 0.5 (≈ 0.772 µM) | 2 (≈ 3.09 µM) | 1 (≈ 1.54 µM) | 0.5 (≈ 0.772 µM) |  |  | 0.5 (≈ 0.772 µM) |  |  |  | 

Reference: ChEMBL document CHEMBL3739277, “Design, synthesis, and antibacterial evaluation of novel azolylthioether quinolones as MRSA DNA intercalators” (2015)
